# Where “and” joins values, the source holds several entries; their conditions need not be identical. Equal entries are not always repeated.
# Species: Rattus norvegicus
# Experiment: DrugMatrix - Regimen: Daily Repeat
# Type: toxicity, organism-based, Sprague-Dawley
# Parameters: regimen Daily Repeat, gender Male, age 6-8 weeks
# Conditions: in vivo, ip, route intraperitoneal, vehicle 100 % SALINE; for ABSOLUTE BASOPHIL / ABSOLUTE EOSINOPHIL / ABSOLUTE LYMPHOCYTE / ABSOLUTE MONOCYTE / BASOPHIL / EOSINOPHIL / ERYTHROCYTE COUNT / HEMATOCRIT / HEMOGLOBIN / LEUKOCYTE COUNT / LYMPHOCYTE / MEAN CORPUSCULAR HEMOGLOBIN / MEAN CORPUSCULAR HEMOGLOBIN CONCENTRATION / MEAN CORPUSCULAR VOLUME / MONOCYTE / NEUTROPHIL / PLATELET COUNT: tissue Blood; for ALANINE AMINOTRANSFERASE / ALBUMIN / ALKALINE PHOSPHATASE / ASPARTATE AMINOTRANSFERASE / BLOOD UREA NITROGEN / CARBON DIOXIDE / CHOLESTEROL / CREATININE / GLUCOSE / LACTATE DEHYDROGENASE / LIPASE / PHOSPHORUS / POTASSIUM / SODIUM / TOTAL BILIRUBIN / URIC ACID / CHLORIDE: tissue Plasma
# [1] = 0 mg/kg, 120 h, dose level Control, time 5 day
# [2] = 0 mg/kg, […], dose level Control, time 14 day
# [3] = 0 mg/kg, […], dose level Control, time 28 day
# [4] = 0.5 mg/kg, 120 h, dose level High, time 5 day
# [5] = 0.5 mg/kg, […], dose level High, time 14 day
# [6] = 0.5 mg/kg, […], dose level High, time 28 day
sequence,measurement,setting,value
CISPLATIN,ABSOLUTE BASOPHIL,[1],32 cells/µL
same,ABSOLUTE EOSINOPHIL,[1],110 cells/µL
same,ABSOLUTE LYMPHOCYTE,[1],6630 cells/µL
same,ABSOLUTE MONOCYTE,[1],140 cells/µL
same,BASOPHIL,[1],0.38% and 0.35%
same,EOSINOPHIL,[1],1.28% and 0.62%
same,ERYTHROCYTE COUNT,[1],7.45 x10E6/uL and 7.26 x10E6/uL
same,HEMATOCRIT,[1],45.74% and 47.97%
same,HEMOGLOBIN,[1],14.72 G/DL and 15.38 G/DL
same,LEUKOCYTE COUNT,[1],8.11 x10E3/uL and 8.68 x10E3/uL
same,LYMPHOCYTE,[1],81.3% and 86.77%
same,MEAN CORPUSCULAR HEMOGLOBIN,[1],19.76 pg and 21.18 pg
same,MEAN CORPUSCULAR HEMOGLOBIN CONCENTRATION,[1],32.16 G/DL and 32.05 G/DL
same,MEAN CORPUSCULAR VOLUME,[1],61.38 fL and 66.15 fL
same,MONOCYTE,[1],1.76% and 1.57%
same,NEUTROPHIL,[1],14.9% and 9.53%
same,PLATELET COUNT,[1],1322.4 x10E3/uL and 1786 x10E3/uL
same,ALANINE AMINOTRANSFERASE,[1],25.8 u/L and 20.5 u/L
same,ALBUMIN,[1],3.64 G/DL and 4.35 G/DL
same,ALKALINE PHOSPHATASE,[1],300 u/L
same,ASPARTATE AMINOTRANSFERASE,[1],81.4 u/L and 86.75 u/L
same,BLOOD UREA NITROGEN,[1],14.4 mg/dL and 17 mg/dL
same,CARBON DIOXIDE,[1],29 mmol/L
same,CHOLESTEROL,[1],69.2 mg/dL and 51.25 mg/dL
same,CREATININE,[1],0.56 mg/dL and 0.47 mg/dL
same,GLUCOSE,[1],125.4 mg/dL and 128.75 mg/dL
same,LACTATE DEHYDROGENASE,[1],105.4 u/L and 145 u/L
same,LIPASE,[1],22.4 u/L and 13.25 u/L
same,PHOSPHORUS,[1],11.8 mg/dL
same,POTASSIUM,[1],5.52 MEQ/L and 6.58 MEQ/L
same,SODIUM,[1],147 MEQ/L and 151 MEQ/L
same,TOTAL BILIRUBIN,[1],0.2 mg/dL and 0.33 mg/dL
same,URIC ACID,[1],1.06 mg/dL and 1.95 mg/dL
same,ABSOLUTE BASOPHIL,[2],130 cells/µL
same,ABSOLUTE EOSINOPHIL,[2],140 cells/µL
same,ABSOLUTE LYMPHOCYTE,[2],13500 cells/µL
same,ABSOLUTE MONOCYTE,[2],400 cells/µL
same,HEMATOCRIT,[2],45.98%
same,HEMOGLOBIN,[2],15.17 G/DL
same,MEAN CORPUSCULAR VOLUME,[2],59.4 fL
same,NEUTROPHIL,[2],14.14%
same,ABSOLUTE BASOPHIL,[3],91 cells/µL
same,ABSOLUTE EOSINOPHIL,[3],110 cells/µL
same,ABSOLUTE LYMPHOCYTE,[3],9910 cells/µL
same,ABSOLUTE MONOCYTE,[3],210 cells/µL
same,BASOPHIL,[3],0.77%
same,EOSINOPHIL,[3],0.92%
same,ERYTHROCYTE COUNT,[3],8.21 x10E6/uL
same,HEMATOCRIT,[3],47.53%
same,HEMOGLOBIN,[3],15.65 G/DL
same,LEUKOCYTE COUNT,[3],11.91 x10E3/uL
same,LYMPHOCYTE,[3],83.34%
same,MEAN CORPUSCULAR HEMOGLOBIN,[3],19.07 pg
same,MEAN CORPUSCULAR HEMOGLOBIN CONCENTRATION,[3],32.93 G/DL
same,MEAN CORPUSCULAR VOLUME,[3],57.9 fL
same,MONOCYTE,[3],1.68%
same,NEUTROPHIL,[3],12.97%
same,PLATELET COUNT,[3],1323.8 x10E3/uL
same,ALBUMIN,[2],3.66 G/DL
same,CARBON DIOXIDE,[2],25 mmol/L
same,CHLORIDE,[2],107 MEQ/L
same,SODIUM,[2],149.2 MEQ/L
same,URIC ACID,[2],0.94 mg/dL
same,ALANINE AMINOTRANSFERASE,[3],30 u/L
same,ALBUMIN,[3],3.71 G/DL
same,ALKALINE PHOSPHATASE,[3],186.8 u/L
same,ASPARTATE AMINOTRANSFERASE,[3],78.2 u/L
same,BLOOD UREA NITROGEN,[3],14.2 mg/dL
same,CHOLESTEROL,[3],44.9 mg/dL
same,CREATININE,[3],0.6 mg/dL
same,GLUCOSE,[3],147.2 mg/dL
same,LACTATE DEHYDROGENASE,[3],123.1 u/L
same,LIPASE,[3],9.6 u/L
same,PHOSPHORUS,[3],10.01 mg/dL
same,POTASSIUM,[3],6.57 MEQ/L
same,SODIUM,[3],149.5 MEQ/L
same,TOTAL BILIRUBIN,[3],0.21 mg/dL
same,URIC ACID,[3],1.26 mg/dL
same,ABSOLUTE BASOPHIL,[4],26 cells/µL
same,ABSOLUTE EOSINOPHIL,[4],92 cells/µL
same,ABSOLUTE LYMPHOCYTE,[4],5270 cells/µL
same,ABSOLUTE MONOCYTE,[4],150 cells/µL
same,BASOPHIL,[4],0.36% and 0.28%
same,EOSINOPHIL,[4],1.46% and 0.85%
same,ERYTHROCYTE COUNT,[4],7.52 x10E6/uL and 7.82 x10E6/uL
same,HEMATOCRIT,[4],46.92% and 52.02%
same,HEMOGLOBIN,[4],16.7 G/DL
same,LEUKOCYTE COUNT,[4],6.24 x10E3/uL and 6.92 x10E3/uL
same,LYMPHOCYTE,[4],84.62% and 88.4%
same,MEAN CORPUSCULAR HEMOGLOBIN,[4],20.1 pg and 21.33 pg
same,MEAN CORPUSCULAR HEMOGLOBIN CONCENTRATION,[4],32.2 G/DL and 32.05 G/DL
same,MEAN CORPUSCULAR VOLUME,[4],66.5 fL
same,MONOCYTE,[4],2.36% and 1.6%
same,NEUTROPHIL,[4],10.88% and 7.72%
same,PLATELET COUNT,[4],1593.2 x10E3/uL and 1552.25 x10E3/uL
same,ALANINE AMINOTRANSFERASE,[4],25 u/L and 19.25 u/L
same,ALBUMIN,[4],3.66 G/DL and 4.4 G/DL
same,ALKALINE PHOSPHATASE,[4],215.2 u/L and 294.25 u/L
same,ASPARTATE AMINOTRANSFERASE,[4],75.2 u/L and 87.5 u/L
same,BLOOD UREA NITROGEN,[4],13.8 mg/dL and 15 mg/dL
same,CARBON DIOXIDE,[4],25.25 mmol/L
same,CHLORIDE,[4],106.6 MEQ/L and 107.25 MEQ/L
same,CHOLESTEROL,[4],54.4 mg/dL and 68 mg/dL
same,CREATININE,[4],0.54 mg/dL and 0.5 mg/dL
same,GLUCOSE,[4],136.8 mg/dL and 138.75 mg/dL
same,LIPASE,[4],26.8 u/L and 10 u/L
same,POTASSIUM,[4],5.54 MEQ/L and 5.67 MEQ/L
same,SODIUM,[4],146.2 MEQ/L and 152.25 MEQ/L
same,TOTAL BILIRUBIN,[4],0.18 mg/dL and 0.43 mg/dL
same,URIC ACID,[4],1.34 mg/dL and 2.38 mg/dL
same,ABSOLUTE BASOPHIL,[5],36 cells/µL
same,ABSOLUTE EOSINOPHIL,[5],56 cells/µL
same,ABSOLUTE LYMPHOCYTE,[5],7470 cells/µL
same,ABSOLUTE MONOCYTE,[5],180 cells/µL
same,MEAN CORPUSCULAR HEMOGLOBIN,[5],19.97 pg
same,ABSOLUTE BASOPHIL,[6],87.8 cells/µL
same,ABSOLUTE EOSINOPHIL,[6],85.6 cells/µL
same,ABSOLUTE LYMPHOCYTE,[6],8670 cells/µL
same,ABSOLUTE MONOCYTE,[6],180 cells/µL
same,BASOPHIL,[6],0.8%
same,EOSINOPHIL,[6],0.83%
same,ERYTHROCYTE COUNT,[6],9.05 x10E6/uL
same,HEMATOCRIT,[6],52.96%
same,HEMOGLOBIN,[6],17.03 G/DL
same,LEUKOCYTE COUNT,[6],10.42 x10E3/uL
same,LYMPHOCYTE,[6],83.03%
same,MEAN CORPUSCULAR HEMOGLOBIN,[6],18.84 pg
same,MEAN CORPUSCULAR HEMOGLOBIN CONCENTRATION,[6],32.23 G/DL
same,MEAN CORPUSCULAR VOLUME,[6],58.53 fL
same,MONOCYTE,[6],1.62%
same,NEUTROPHIL,[6],13.3%
same,PLATELET COUNT,[6],1272.33 x10E3/uL
same,ALBUMIN,[5],3.38 G/DL
same,CARBON DIOXIDE,[5],22.25 mmol/L
same,CHLORIDE,[5],111.6 MEQ/L
same,ALANINE AMINOTRANSFERASE,[6],30.78 u/L
